Measured values as given in patent US10023593B2, “ALK kinase inhibitor, and preparation method and uses thereof” (BEIJING PEARL BIOTECHNOLOGY LIMITED LIABILITY COMPANY, priority 2014, dated 2018).

How the values were obtained:
L1196M mutant ALK kinase = target: T1, L1196M mutant ALK kinase (Homo sapiens, UniProt Q9UM73, L1196M); assay: HTRF KinEASE-TK assay, inhibitory activity on L1196M mutant ALK kinase; format: biochemical; conditions: L1196M mutant ALK 1 ng/μl, substrate 1 μM, ATP 5 μM, 30° C. 35 minutes, read-out: Inhibition on ALK kinases (L1196M mutant), IC50
T1 construct: purchased Sino-US Crown Bioscience, Inc. batch number ALKm_20110923
T1 sequence (Q9UM73 19-1620 L1196M): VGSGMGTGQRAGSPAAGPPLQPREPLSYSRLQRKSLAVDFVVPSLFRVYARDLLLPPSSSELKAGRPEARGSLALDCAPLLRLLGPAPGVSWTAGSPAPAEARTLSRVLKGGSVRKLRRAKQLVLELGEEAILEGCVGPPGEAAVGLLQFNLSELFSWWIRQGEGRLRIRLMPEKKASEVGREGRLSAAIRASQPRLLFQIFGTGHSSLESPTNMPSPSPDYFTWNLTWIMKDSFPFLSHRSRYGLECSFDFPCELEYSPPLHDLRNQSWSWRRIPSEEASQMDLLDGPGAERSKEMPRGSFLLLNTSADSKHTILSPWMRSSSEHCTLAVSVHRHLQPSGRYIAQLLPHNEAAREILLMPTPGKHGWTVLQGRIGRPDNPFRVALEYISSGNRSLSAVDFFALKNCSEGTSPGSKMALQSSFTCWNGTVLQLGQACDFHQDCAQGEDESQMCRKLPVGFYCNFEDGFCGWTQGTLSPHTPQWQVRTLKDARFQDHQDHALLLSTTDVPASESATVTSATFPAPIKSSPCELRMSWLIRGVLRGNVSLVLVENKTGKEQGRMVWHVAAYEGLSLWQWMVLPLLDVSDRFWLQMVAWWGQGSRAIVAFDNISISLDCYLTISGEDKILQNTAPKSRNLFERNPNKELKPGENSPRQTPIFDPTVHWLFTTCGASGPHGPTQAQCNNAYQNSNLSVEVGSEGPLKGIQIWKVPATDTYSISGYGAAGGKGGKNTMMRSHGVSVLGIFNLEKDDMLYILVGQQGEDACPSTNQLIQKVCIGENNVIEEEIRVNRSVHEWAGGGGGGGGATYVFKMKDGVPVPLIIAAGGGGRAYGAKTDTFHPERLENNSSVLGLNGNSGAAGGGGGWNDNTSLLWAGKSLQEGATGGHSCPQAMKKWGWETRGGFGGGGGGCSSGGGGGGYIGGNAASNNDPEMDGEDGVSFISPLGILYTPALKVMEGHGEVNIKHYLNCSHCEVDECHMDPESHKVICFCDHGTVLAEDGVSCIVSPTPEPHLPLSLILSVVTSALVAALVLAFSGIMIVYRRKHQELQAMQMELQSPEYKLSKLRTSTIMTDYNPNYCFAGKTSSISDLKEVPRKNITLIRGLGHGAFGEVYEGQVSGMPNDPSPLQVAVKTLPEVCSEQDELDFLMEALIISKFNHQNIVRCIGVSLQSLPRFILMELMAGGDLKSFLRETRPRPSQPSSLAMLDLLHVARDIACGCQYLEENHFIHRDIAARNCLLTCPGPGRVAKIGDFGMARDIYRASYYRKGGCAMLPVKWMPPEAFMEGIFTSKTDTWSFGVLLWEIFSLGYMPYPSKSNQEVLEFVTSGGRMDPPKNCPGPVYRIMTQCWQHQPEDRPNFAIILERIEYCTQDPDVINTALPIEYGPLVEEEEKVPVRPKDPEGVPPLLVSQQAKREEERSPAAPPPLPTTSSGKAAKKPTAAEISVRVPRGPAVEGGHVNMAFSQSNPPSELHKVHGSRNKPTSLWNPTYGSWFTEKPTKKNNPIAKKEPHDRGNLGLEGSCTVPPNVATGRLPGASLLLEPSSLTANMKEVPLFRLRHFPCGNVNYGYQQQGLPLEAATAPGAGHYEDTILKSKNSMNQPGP
Method in brief: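 HTRF TK assay: mutant kinase 1 ng/μl, substrate 1 μM, ATP 5 μM, 5 mM MgCl2, 1 mM DTT, 1% DMSO, 35 min at 30 °C. 665/615 ratio read; inhibition normalised to no-compound and 10.4 μM LDK-378 controls; IC50 from curve fit.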

NCI-H2228 cell line = assay: CellTiter-Glo cell proliferation inhibition on NCI-H2228 cell line; format: cell-based; conditions: Homo sapiens, NCI-H2228, 96 h, NCI-H2228 cells, 5000 cells/well, 4 days drug treatment
Method in brief: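 NCI-H2228 cells, 5000/well in RPMI-1640 + 10% FBS, treated with compounds 2 h after seeding (0.5% DMSO final) for 4 days at 37° C. Viability by CellTiter-Glo luminescence; inhibition relative to DMSO control, IC50 from curve fit.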

Row | Structure (SMILES) | IC50 (L1196M mutant ALK kinase) [nM] | IC50 (NCI-H2228 cell line) [nM]
1 | Cc1cc(Nc2ncc(Cl)c(Nc3cn(C)nc3S(=O)(=O)C(C)C)n2)c(OC2CC2)cc1C1CCN(C(=O)CC#N)CC1 [Final product 166, 1-cyano acetyl-4-(4-(5-chloro-4-(3-(isopropylsulfonyl)-1-methyl-1H-pyrazol-4-amino)pyrimidin-2-amine)-5-cyclopropoxy-2-methylphenyl)piperidine] | 6 | 42
2 | Cc1cc(Nc2ncc(Cl)c(Nc3cn(C)nc3S(=O)(=O)C(C)C)n2)c(OC2CC2)cc1C1CCN(S(C)(=O)=O)CC1 [Final product 167, 5-chloro-N^2-(2-cyclopropoxy-5-methyl-4-(1-methanesulfonyl-piperidin-4-yl)-phenyl)-N^4-(3-(isopropylsulfonyl)-1-methyl-1H-pyrazol-4-yl)pyrimidin-2,4-diamine] | 11 | 59
3 | Cc1cc(Nc2ncc(Cl)c(Nc3cn(C)nc3S(=O)(=O)C(C)C)n2)c(OC(C)C)cc1C1CN(S(C)(=O)=O)C1 [Final product 168] | 25 | 440
4 | Cc1cc(Nc2ncc(Cl)c(Nc3cn(C)nc3S(=O)(=O)C(C)C)n2)c(OC2CC2)cc1C1CN(S(C)(=O)=O)C1 [Final product 170] | 95 | 381
5 | Cc1cc(Nc2ncc(Cl)c(Nc3cn(C)nc3S(=O)(=O)CC(C)C)n2)c(OC2CC2)cc1C1CN(S(C)(=O)=O)C1 [Final product 171] | 156 | 251
6 | CC(C)S(=O)(=O)c1nn(C)cc1Nc1nc(Nc2ccc(C3CCN(S(C)(=O)=O)C3)cc2OC2CC2)ncc1Cl (stereo not shown) [Final product 172] | 9 | 111
7 | CC(C)S(=O)(=O)c1nn(C2CC2)cc1Nc1nc(Nc2ccc(C3CCN(S(C)(=O)=O)CC3)cc2OC2CC2)ncc1Cl [Final product 173] | 28 | 34
8 | CCNC(=O)N1CCC(c2cc(OC3CC3)c(Nc3ncc(Cl)c(Nc4cn(C)nc4S(=O)(=O)C(C)C)n3)cc2C)CC1 [Final product 174, 4-(4-(5-chloro-4-(3-(isopropylsulfonyl)-1-methyl-1H-pyrazol-4-amine)pyrimidin-2-amine)-5-cyclopropoxy-2-methyl-phenyl)-N-ethyl-piperidin-1-carboxamide] | 6 | 82
9 | CCN(CC)[C@H]1CC[C@H](c2cc(OC3CC3)c(Nc3ncc(Cl)c(Nc4cn(C)nc4S(=O)(=O)CC(C)C)n3)cc2C)CC1 [Final product 178] | 17 | 101
10 | Cc1cc(Nc2ncc(Cl)c(Nc3cn(C)nc3S(=O)(=O)CC(C)C)n2)c(OC2CC2)cc1[C@H]1CC[C@H](NC2CC2)CC1 [Final product 180] | 40 | 127
11 | Cc1cc(Nc2ncc(Cl)c(Nc3cn(C)nc3S(=O)(=O)CC(C)C)n2)c(OC2CC2)cc1[C@H]1CC[C@H](NC(C)C)CC1 [Final product 182] | 22 | 89
12 | Cc1cc(Nc2ncc(Cl)c(Nc3cn(C)nc3S(=O)(=O)C(C)C)n2)c(OC(C)C)cc1[C@H]1CC[C@H](NC(C)C)CC1 [Final product 188] | 8 | 89
13 | Cc1cc(Nc2ncc(Cl)c(Nc3cn(C)nc3S(=O)(=O)C(C)C)n2)c(OC2CC2)cc1[C@H]1CC[C@@H](N(C)C)CC1 [Final product 189] | 7 | 76
14 | Cc1cc(Nc2ncc(Cl)c(Nc3cn(C)nc3S(=O)(=O)C(C)C)n2)c(OC2CC2)cc1[C@H]1CC[C@H](NC2CC2)CC1 [Final product 196] | 18 | 88
15 | Cc1cc(Nc2ncc(Cl)c(Nc3cn(C)nc3S(=O)(=O)C(C)C)n2)c(OC2CC2)cc1[C@H]1CC[C@H](NC(C)C)CC1 [Final product 198] | 9 | 54
16 | CC(=O)N1CCN([C@H]2CC[C@H](c3cc(OC4CC4)c(Nc4ncc(Cl)c(Nc5cn(C)nc5S(=O)(=O)C(C)C)n4)cc3C)CC2)CC1 [Final product 204] | 18 | 76
17 | Cc1cc(Nc2ncc(Cl)c(Nc3cn(C)nc3S(=O)(=O)C(C)C)n2)c(OC2CC2)cc1C1=C(Cl)CN(C)CC1 [Final product 208, 5-chloro-N^2-[4-(5-chloro-1-methyl-1,2,3,6-tetrahydro-pyridin-4-yl)-2-cyclopropoxy-5-methyl-phenyl]-N^4-[1-methyl-3-(isopropylsulfonyl)-1H-pyrazol-4-yl]-pyrimidin-2,4-diamine] | 36 | 152
